The source made the active and inactive calls. The calls are words filed in the database; no cut-off is given here.

The subject of series [1] is Epidermal growth factor receptor (Homo sapiens), P00533 [T790M]. The following applies: 1 uM.
The target in series [2] is Epidermal growth factor receptor (Homo sapiens, UniProt P00533). The experiment in a line: Inhibition of wild-type EGFR in human A431 cells assessed as reduction in cell viability after 96 hrs by CellTiterGlo assay. Type of series: ADME, cell-based. For orientation: In ATP-based viability assays light output follows the ATP content of the culture.
Series [3] relates to Epidermal growth factor receptor (Homo sapiens), P00533 [L858R].
Sequence of Epidermal growth factor receptor (Homo sapiens), P00533 [L858R] (P00533 whole entry L858R): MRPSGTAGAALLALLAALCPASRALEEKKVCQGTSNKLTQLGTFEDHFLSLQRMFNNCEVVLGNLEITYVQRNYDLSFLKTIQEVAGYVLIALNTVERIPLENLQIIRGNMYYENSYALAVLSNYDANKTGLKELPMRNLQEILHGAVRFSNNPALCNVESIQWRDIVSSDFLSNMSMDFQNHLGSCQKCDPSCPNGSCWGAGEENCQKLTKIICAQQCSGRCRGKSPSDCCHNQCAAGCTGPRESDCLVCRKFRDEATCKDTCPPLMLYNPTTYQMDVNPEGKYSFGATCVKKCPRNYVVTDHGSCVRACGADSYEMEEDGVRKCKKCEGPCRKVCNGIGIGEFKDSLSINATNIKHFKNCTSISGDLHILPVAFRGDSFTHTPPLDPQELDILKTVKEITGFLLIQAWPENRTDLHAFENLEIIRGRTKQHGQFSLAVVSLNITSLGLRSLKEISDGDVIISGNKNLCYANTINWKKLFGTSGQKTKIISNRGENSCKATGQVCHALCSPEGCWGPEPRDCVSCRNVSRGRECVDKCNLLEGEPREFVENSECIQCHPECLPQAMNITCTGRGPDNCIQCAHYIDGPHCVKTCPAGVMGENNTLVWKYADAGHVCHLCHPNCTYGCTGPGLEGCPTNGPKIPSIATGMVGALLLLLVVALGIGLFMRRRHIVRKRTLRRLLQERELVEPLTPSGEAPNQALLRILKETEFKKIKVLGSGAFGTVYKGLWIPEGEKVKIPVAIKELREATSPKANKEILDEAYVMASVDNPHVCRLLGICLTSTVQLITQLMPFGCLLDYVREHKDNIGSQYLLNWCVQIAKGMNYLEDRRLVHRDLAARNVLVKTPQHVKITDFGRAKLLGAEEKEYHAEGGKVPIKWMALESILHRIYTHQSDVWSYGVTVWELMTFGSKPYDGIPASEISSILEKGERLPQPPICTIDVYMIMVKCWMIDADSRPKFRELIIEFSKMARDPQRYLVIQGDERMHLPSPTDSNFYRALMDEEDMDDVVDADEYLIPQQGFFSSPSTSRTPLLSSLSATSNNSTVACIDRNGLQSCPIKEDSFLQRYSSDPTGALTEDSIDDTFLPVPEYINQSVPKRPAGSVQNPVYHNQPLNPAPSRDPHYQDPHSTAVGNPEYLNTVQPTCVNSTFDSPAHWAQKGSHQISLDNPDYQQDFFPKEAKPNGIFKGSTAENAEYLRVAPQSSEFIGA
Series [4] has as its target T1, Cytoplasmic tyrosine-protein kinase BMX (Homo sapiens) (UniProt P51813).
T1 sequence (whole entry): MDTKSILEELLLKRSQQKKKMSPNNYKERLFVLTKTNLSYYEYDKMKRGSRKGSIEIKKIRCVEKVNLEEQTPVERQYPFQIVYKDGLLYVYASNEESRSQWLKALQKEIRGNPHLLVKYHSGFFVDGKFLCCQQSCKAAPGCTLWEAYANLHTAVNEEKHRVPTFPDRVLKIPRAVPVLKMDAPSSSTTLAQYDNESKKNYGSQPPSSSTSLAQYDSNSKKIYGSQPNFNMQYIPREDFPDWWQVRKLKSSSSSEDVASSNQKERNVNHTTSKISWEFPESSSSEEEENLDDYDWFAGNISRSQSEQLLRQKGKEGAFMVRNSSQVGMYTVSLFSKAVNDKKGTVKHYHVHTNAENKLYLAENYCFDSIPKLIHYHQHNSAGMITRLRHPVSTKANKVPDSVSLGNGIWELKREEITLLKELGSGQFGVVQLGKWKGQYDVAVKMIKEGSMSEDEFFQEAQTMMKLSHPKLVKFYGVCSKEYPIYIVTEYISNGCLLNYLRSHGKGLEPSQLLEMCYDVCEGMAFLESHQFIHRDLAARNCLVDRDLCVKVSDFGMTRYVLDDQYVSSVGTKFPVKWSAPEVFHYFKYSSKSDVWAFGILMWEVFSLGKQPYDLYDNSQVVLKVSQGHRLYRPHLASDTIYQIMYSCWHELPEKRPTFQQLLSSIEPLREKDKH
The series can be described thus: Inhibition of full-length recombinant human His-tagged cytoplasmic BMX expressed in baculovirus expression system at 1 uM by Z'-LYTE assay.

In series [5] the test system is Epidermal growth factor receptor (Homo sapiens), P00533 [L858R,T790M]. Conditions: 100 nM.
Sequence of Epidermal growth factor receptor (Homo sapiens), P00533 [L858R,T790M] (P00533 whole entry T790M/L858R, looked up): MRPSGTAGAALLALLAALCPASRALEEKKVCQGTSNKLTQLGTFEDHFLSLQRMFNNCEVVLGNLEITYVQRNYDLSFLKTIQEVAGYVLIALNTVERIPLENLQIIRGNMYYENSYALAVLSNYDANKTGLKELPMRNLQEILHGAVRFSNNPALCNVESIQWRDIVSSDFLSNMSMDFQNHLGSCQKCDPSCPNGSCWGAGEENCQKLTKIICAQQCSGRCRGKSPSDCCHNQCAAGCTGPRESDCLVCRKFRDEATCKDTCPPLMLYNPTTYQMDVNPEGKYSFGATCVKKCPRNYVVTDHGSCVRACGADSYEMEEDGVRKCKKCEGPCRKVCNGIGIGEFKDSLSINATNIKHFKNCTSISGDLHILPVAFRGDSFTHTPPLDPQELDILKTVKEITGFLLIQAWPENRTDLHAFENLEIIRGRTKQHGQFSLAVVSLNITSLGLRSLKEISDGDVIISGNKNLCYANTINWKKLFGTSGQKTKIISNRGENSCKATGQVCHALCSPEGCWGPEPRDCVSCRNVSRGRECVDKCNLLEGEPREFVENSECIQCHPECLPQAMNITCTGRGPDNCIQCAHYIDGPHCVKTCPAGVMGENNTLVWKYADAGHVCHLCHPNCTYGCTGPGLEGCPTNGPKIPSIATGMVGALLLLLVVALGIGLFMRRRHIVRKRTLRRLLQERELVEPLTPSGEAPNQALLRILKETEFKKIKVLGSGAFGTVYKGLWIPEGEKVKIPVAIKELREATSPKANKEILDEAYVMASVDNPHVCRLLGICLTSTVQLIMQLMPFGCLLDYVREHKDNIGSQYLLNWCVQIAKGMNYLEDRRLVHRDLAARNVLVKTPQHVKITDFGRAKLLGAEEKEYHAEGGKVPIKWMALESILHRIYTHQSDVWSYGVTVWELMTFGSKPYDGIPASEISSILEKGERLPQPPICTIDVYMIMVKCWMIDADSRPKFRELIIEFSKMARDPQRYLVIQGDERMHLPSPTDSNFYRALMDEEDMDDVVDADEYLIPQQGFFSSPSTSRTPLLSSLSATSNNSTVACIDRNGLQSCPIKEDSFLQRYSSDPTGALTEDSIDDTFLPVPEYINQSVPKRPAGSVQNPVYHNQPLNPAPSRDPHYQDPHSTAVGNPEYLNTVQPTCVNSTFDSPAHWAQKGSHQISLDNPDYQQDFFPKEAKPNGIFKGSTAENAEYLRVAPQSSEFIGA
In series [6] the target is T2, Tyrosine-protein kinase JAK3 (Homo sapiens) (UniProt P52333).
T2 sequence (whole entry): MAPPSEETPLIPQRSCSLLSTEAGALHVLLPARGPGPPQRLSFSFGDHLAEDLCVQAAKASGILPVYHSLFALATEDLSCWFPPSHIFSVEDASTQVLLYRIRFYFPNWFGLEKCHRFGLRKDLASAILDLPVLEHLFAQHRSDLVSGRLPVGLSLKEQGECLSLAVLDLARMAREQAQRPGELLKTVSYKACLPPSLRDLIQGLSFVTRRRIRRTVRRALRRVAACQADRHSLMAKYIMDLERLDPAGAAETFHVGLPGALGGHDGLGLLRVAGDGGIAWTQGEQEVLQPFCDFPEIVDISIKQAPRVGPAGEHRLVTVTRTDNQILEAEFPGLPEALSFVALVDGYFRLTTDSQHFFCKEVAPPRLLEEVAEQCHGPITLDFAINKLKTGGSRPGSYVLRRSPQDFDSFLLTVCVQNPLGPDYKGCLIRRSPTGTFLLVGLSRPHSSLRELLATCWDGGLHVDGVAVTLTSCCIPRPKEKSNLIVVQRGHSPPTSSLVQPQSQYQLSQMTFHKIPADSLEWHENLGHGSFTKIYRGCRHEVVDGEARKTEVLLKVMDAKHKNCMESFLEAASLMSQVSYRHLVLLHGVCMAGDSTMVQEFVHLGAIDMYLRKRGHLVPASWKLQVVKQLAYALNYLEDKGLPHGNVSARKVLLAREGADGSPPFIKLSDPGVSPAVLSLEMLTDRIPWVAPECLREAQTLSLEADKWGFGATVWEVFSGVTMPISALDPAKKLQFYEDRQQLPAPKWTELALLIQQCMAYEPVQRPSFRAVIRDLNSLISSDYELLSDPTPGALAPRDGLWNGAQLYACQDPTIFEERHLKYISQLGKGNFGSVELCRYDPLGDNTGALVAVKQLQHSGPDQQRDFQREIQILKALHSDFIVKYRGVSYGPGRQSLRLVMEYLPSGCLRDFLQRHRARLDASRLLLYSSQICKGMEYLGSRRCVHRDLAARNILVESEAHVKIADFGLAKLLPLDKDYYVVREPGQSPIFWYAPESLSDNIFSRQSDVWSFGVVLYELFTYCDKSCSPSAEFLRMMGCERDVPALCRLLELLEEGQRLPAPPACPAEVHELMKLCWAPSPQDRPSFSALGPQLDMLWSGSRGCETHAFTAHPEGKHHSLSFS
The series can be described thus: Inhibition of recombinant human GST-tagged cytoplasmic JAK3 (781 to 1124 amino acid residues) catalytic domain expressed in baculovirus expression system at 1 uM by Z'-LYTE assay.

Series [7] is described as follows: Stability in mouse plasma assessed as compound remaining at 5 uM after 1 hr by LCMS analysis. Type of series: ADME, cell-free. The following applies: read-out: Stability.
The test system of series [8] is Epidermal growth factor receptor (Homo sapiens), P00533 [L861Q]. Conditions: 1 uM.
Series [9] deals with Epidermal growth factor receptor (Homo sapiens), P00533 [L858R,T790M]. Conditions: 100 nM. The source holds these as a separate data set.
Series [10] deals with Epidermal growth factor receptor (Homo sapiens), P00533 [L858R]. Conditions: 1 uM.
Series [11] concerns the target Epidermal growth factor receptor (Homo sapiens, UniProt P00533, L858R).
In series [12] the test system is Epidermal growth factor receptor (Homo sapiens), P00533 [L858R,T790M]. Conditions: 100 nM. The source holds these as a separate data set.
Series [13] concerns the target Receptor tyrosine-protein kinase erbB-2 (Homo sapiens) (UniProt P04626). The series can be described thus: Inhibition of ERBB2 (unknown origin) at 1 uM by Z'-LYTE assay.

Sequence of Epidermal growth factor receptor (Homo sapiens), P00533 [T790M] (P00533 whole entry T790M): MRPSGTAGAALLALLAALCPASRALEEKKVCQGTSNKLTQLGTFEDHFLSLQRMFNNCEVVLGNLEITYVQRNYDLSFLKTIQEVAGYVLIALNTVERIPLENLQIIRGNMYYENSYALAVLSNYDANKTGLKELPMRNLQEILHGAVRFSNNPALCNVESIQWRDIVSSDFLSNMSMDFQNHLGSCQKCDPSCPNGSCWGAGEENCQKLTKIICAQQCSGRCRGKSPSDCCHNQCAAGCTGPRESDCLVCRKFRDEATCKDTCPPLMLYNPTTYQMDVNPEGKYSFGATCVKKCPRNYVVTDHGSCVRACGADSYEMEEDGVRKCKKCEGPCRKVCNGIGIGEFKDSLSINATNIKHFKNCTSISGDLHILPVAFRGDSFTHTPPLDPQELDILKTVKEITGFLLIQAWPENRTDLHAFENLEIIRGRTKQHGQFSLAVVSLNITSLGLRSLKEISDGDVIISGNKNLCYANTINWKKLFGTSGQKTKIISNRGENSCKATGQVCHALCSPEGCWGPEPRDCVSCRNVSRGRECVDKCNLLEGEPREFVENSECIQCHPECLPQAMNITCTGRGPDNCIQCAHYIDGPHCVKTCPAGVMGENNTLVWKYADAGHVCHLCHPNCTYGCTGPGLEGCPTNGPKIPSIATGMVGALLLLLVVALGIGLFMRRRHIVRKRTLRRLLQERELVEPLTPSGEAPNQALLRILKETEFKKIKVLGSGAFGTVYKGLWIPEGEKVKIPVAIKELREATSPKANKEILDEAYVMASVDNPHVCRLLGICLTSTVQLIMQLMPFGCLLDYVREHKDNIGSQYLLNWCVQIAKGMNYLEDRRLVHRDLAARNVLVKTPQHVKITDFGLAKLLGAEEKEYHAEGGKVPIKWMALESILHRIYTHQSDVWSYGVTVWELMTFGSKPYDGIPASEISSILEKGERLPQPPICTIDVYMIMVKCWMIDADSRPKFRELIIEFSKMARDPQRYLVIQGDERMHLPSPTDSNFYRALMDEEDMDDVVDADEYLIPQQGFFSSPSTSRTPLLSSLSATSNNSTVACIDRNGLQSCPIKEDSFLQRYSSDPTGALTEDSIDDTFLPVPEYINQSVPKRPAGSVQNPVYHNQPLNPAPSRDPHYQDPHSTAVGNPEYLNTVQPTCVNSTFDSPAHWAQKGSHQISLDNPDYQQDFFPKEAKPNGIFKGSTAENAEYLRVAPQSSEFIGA
Sequence of Receptor tyrosine-protein kinase erbB-2 (Homo sapiens) (P04626 whole entry): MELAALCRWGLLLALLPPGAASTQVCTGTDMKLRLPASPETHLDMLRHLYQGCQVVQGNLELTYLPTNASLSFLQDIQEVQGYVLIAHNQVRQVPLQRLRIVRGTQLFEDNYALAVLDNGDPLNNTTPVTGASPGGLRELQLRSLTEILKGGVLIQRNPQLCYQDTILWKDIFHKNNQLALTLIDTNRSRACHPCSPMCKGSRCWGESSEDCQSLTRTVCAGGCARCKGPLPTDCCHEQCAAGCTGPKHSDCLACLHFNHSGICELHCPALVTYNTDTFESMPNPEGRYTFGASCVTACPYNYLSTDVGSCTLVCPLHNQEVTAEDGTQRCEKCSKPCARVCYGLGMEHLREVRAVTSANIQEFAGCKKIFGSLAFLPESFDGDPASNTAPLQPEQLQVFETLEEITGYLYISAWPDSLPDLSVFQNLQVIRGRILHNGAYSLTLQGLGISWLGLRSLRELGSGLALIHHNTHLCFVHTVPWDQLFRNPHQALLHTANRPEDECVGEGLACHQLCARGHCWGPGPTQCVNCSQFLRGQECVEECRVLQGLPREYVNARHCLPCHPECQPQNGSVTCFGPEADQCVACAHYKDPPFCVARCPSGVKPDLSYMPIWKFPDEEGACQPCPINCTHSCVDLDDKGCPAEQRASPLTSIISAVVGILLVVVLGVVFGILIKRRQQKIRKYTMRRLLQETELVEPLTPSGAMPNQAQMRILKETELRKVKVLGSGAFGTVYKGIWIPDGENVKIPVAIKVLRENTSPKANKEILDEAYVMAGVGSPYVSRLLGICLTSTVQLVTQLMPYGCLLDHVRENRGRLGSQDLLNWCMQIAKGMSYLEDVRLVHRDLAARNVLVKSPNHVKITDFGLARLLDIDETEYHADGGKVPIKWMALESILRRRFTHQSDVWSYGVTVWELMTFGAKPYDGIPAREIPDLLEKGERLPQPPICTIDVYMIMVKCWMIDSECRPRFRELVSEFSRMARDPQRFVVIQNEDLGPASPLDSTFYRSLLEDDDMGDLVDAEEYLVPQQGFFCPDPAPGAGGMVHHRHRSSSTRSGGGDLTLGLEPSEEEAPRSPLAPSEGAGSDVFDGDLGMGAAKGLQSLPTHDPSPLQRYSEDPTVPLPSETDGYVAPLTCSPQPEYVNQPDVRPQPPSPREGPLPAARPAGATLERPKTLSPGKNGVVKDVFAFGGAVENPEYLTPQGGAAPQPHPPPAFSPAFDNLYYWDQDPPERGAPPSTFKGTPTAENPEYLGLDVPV

With `C=CC(=O)Nc1cc(Nc2n[nH]c3cc(Nc4cccc(F)c4)ccc23)c(OC)cc1N(C)CCN(C)C`, the inhibition in series [1] was more than 95%; in series [4] it was more than 85%; in [6], more than 85%; in [8], more than 95%; in series [10], more than 95%. Also, the EC50 in series [2] amounted to 3.1 µM. In series [3], the Kinact is 0.09 min⁻¹. Moreover, the inhibition entry in [5], in [9], in series [12] and in series [13] was “Active” in each case. The remaining at 1 h, 5 µM in series [7] is more than 90%. This molecule also came in with a half-maximal inhibitory concentration (IC50) in [11] of less than 0.001 µM.

A word on the inhibition: it is the drop in the measured response relative to a control, in per cent. As a reminder, the EC50 is the concentration that produces a half-maximal response. As usually defined, the IC50 is the point on the concentration scale where inhibition reaches its midpoint. Read a low IC50 as greater potency.

The values above are taken from ChEMBL document CHEMBL4007434, “Indazole-Based Covalent Inhibitors To Target Drug-Resistant Epidermal Growth Factor Receptor” (J Med Chem, 2017).
